Tests used:
Assay type in all cases: biochemical
Lck = biological target: T1, Lck (Homo sapiens, UniProt P06239); assay: Kinase inhibition assay (33P transfer), Lck; conditions: Table 3; read-out: Lck-1
T1 construct: Kinases are expressed as either kinase domains or full length constructs; made in house
How it was run: (§1)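 Kinase domains or full-length kinases, GST- or His-tagged and expressed in E. coli or baculovirus/High Five cells, transferred 33PO4 from ATP onto plate-bound poly(Glu,Tyr) 4:1 or poly(Arg,Ser) 3:1. After incubation, plates were washed with 0.5% phosphoric acid and counted by liquid scintillation.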

Src = biological target: T2, Src (Homo sapiens, UniProt P12931); assay: Kinase inhibition assay (33P transfer), Src; conditions: Table 6, Src-1 kinase inhibition class
T2 construct: Kinases are expressed as either kinase domains or full length constructs; made in house
How it was run: (§2)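 Using immobilised substrate copolymers (poly(Glu,Tyr) 4:1; poly(Arg,Ser) 3:1) and [33P]ATP, purified fusion kinases were allowed to react; plates were then rinsed in 0.5% phosphoric acid and counted in a scintillation detector. Half-maximal inhibition of label transfer defines IC50.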

EGFR = biological target: T3, EGFR (Homo sapiens, UniProt P00533); assay: Kinase inhibition assay (33P transfer), EGFR; conditions: Table 2, kinase inhibition class; read-out: EGFR-1
T3 construct: Kinases are expressed as either kinase domains or full length constructs; made in house
How it was run: as §2

Flt-1 = biological target: T4, Flt-1 (Homo sapiens, UniProt P17948); assay: Kinase inhibition assay (33P transfer), Flt-1
T4 construct: Kinases are expressed as either kinase domains or full length constructs; made in house
How it was run: as §2

Tek = biological target: T5, Tek (Homo sapiens, UniProt Q02763); assay: Kinase inhibition assay (33P transfer), Tek; conditions: read-out: Tek-1
T5 construct: Kinases are expressed as either kinase domains or full length constructs; made in house
How it was run: as §2

c-Met = biological target: T6, c-Met (Homo sapiens, UniProt P08581); assay: Kinase inhibition assay (33P transfer), c-Met; conditions: Table 2, kinase inhibition class; read-out: Met-1
T6 construct: Kinases are expressed as either kinase domains or full length constructs; made in house
How it was run: as §2

AKT = biological target: T7, AKT (Homo sapiens, UniProt Q9Y243); assay: Kinase inhibition assay (33P transfer), AKT; conditions: Table 2, kinase inhibition class; read-out: AKT3-1
T7 construct: Kinases are expressed as either kinase domains or full length constructs; made in house
How it was run: as §1

PDGFRB = biological target: T8, PDGFRB (Homo sapiens, UniProt P09619); assay: Kinase inhibition assay (33P transfer), PDGFRB; conditions: read-out: PDGFRB-1
T8 construct: Kinases are expressed as either kinase domains or full length constructs; made in house

EPHB4 = biological target: T9, EPHB4 (Homo sapiens, UniProt P54760); assay: Kinase inhibition assay (33P transfer), EPHB4; conditions: read-out: EPHB4-1
T9 construct: Kinases are expressed as either kinase domains or full length constructs; made in house
T9 sequence (P54760 16-987): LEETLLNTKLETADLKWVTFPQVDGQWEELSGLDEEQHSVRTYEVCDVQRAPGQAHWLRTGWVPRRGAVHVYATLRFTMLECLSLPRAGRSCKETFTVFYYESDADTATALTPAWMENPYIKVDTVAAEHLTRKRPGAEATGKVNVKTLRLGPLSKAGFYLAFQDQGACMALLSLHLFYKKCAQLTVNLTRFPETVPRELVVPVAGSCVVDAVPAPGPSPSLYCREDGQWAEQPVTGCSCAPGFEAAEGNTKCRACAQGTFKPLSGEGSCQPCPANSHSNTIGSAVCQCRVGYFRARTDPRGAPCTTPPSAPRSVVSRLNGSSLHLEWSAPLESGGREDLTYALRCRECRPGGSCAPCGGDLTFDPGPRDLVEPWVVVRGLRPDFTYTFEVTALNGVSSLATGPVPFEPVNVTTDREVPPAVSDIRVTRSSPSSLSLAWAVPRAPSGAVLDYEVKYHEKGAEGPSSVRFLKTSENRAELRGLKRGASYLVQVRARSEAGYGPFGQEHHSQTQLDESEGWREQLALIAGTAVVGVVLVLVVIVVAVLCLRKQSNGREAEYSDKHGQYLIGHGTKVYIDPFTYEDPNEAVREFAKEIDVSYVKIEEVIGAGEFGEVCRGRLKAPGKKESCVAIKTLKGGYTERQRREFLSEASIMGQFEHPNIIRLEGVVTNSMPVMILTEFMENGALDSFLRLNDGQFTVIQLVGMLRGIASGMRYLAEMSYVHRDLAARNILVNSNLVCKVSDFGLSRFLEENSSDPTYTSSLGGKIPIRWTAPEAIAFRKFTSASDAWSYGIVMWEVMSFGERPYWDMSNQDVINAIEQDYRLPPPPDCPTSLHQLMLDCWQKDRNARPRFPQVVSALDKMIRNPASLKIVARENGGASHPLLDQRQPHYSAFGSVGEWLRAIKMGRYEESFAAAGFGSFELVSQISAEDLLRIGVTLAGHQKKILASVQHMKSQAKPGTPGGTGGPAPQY

Hck-1 = biological target: T10, Hck-1 (Homo sapiens, UniProt P08631); assay: Kinase inhibition assay (33P transfer), Hck; conditions: Table 6, Hck-1 kinase inhibition class
T10 construct: Kinases are expressed as either kinase domains or full length constructs; made in house

FGFR1 = biological target: T11, FGFR1 (Homo sapiens, UniProt P11362); assay: Kinase inhibition assay (33P transfer), FGFR1; conditions: read-out: FGFR1-1
T11 construct: Kinases are expressed as either kinase domains or full length constructs; made in house
T11 sequence (P11362 22-822, species assumed): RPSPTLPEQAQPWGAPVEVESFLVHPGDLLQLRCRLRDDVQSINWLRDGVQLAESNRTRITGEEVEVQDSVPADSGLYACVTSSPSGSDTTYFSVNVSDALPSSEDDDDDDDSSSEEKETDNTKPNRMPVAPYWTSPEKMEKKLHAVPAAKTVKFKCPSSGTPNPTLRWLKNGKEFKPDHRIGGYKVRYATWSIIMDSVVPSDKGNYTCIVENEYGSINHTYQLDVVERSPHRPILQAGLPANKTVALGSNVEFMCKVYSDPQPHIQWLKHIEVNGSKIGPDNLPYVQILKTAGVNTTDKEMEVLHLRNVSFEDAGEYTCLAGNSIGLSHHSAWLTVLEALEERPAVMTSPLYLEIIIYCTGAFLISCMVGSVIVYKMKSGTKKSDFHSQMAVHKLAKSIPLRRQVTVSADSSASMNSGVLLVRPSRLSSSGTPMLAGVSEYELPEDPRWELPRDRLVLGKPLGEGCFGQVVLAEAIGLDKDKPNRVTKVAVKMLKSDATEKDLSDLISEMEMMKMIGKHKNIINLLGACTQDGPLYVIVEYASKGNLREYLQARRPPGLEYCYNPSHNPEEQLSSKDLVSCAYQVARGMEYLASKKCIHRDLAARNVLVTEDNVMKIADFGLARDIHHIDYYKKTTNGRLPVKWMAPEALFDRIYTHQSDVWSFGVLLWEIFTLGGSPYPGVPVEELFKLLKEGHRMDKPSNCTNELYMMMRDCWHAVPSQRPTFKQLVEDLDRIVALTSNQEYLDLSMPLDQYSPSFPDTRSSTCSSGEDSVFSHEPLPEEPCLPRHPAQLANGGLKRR

T8 sequence (P09619 33-1106, species assumed): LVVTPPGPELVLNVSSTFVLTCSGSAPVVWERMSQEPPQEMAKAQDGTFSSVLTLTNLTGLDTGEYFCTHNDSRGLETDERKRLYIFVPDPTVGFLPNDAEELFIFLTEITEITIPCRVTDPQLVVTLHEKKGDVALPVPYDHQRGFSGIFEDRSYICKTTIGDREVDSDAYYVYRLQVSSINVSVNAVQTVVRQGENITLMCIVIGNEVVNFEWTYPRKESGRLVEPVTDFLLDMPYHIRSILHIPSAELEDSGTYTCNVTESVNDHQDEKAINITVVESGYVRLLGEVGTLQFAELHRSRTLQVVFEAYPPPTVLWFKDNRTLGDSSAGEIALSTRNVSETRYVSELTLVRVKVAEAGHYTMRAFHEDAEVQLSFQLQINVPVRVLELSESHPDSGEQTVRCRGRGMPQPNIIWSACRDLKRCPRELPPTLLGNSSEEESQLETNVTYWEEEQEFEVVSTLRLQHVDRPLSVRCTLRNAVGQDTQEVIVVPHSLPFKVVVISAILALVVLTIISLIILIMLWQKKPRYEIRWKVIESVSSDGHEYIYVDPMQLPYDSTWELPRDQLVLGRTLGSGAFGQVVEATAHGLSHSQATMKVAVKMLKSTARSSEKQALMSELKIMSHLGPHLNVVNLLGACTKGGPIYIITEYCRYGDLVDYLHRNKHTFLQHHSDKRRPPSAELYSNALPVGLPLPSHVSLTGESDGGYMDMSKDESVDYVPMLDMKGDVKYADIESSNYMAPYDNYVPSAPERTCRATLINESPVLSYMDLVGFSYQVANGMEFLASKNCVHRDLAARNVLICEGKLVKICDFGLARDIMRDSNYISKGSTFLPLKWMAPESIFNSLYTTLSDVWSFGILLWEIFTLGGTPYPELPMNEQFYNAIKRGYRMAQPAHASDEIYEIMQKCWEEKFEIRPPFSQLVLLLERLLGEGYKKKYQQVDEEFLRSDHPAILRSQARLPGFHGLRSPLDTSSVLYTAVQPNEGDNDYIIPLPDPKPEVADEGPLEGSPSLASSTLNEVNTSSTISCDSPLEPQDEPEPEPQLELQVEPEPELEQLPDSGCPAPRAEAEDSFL
T10 sequence (P08631 whole entry, the tested form may be a part): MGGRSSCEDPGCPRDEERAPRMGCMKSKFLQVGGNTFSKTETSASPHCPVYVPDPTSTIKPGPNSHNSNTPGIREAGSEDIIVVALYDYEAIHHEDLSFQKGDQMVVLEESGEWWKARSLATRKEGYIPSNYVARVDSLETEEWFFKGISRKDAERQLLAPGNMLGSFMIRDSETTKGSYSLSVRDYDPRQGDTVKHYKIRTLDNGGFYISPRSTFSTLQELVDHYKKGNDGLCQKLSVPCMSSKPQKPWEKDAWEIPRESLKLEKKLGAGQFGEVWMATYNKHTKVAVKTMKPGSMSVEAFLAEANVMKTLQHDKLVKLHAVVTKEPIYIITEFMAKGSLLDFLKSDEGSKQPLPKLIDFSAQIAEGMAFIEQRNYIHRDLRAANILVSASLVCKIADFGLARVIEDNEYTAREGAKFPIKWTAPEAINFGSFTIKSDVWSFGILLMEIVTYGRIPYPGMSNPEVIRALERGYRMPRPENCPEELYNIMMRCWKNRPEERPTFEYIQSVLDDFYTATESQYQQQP
T2 sequence (P12931 whole entry, species assumed, the tested form may be a part): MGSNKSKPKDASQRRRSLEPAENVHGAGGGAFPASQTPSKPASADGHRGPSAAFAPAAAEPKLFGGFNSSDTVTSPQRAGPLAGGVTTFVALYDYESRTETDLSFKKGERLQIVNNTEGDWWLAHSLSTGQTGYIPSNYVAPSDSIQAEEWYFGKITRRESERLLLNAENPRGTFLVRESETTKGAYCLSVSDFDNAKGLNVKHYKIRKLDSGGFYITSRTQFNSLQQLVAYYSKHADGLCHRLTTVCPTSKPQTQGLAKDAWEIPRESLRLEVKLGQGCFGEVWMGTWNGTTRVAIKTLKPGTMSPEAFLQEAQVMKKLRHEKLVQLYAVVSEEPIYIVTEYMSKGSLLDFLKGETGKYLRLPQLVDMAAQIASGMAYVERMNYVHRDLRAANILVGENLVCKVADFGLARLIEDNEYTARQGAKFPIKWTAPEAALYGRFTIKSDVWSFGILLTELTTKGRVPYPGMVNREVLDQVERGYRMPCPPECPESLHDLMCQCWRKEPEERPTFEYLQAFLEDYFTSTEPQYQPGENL
T6 sequence (P08581 25-1390): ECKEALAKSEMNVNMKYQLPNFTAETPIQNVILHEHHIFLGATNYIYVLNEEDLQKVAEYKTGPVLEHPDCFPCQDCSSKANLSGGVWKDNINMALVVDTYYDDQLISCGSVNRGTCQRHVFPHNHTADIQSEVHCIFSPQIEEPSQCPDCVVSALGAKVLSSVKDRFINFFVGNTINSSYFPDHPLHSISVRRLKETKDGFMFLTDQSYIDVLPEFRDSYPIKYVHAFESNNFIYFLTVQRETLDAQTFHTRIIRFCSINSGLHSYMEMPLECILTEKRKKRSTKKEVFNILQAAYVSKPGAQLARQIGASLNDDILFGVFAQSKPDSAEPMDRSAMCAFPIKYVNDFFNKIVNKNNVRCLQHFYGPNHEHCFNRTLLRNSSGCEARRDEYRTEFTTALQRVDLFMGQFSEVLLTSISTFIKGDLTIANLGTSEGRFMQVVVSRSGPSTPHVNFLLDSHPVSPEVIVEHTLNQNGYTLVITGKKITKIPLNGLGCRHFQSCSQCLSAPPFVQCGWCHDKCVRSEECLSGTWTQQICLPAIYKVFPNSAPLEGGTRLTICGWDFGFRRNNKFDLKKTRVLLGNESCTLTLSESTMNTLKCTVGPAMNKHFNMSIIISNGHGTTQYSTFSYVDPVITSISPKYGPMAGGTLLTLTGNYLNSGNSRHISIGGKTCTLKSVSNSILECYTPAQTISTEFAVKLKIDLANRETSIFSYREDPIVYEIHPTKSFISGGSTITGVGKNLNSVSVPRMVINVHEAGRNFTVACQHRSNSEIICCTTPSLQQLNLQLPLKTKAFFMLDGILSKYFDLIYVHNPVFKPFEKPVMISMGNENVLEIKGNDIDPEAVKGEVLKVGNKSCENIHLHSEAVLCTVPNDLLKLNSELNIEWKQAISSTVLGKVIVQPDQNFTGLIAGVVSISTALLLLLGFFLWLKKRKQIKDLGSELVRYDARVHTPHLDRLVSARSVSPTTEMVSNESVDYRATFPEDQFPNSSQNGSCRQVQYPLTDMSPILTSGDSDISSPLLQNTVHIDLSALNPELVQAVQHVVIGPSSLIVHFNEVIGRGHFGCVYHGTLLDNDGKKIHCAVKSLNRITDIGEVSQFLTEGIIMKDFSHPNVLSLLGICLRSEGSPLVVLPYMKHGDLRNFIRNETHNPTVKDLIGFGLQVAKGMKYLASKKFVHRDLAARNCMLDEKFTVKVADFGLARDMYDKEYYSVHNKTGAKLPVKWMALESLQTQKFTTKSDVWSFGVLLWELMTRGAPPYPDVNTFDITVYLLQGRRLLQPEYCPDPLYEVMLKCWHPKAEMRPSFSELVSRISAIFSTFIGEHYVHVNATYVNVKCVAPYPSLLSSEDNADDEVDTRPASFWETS
T7 sequence (Q9Y243 whole entry, the tested form may be a part): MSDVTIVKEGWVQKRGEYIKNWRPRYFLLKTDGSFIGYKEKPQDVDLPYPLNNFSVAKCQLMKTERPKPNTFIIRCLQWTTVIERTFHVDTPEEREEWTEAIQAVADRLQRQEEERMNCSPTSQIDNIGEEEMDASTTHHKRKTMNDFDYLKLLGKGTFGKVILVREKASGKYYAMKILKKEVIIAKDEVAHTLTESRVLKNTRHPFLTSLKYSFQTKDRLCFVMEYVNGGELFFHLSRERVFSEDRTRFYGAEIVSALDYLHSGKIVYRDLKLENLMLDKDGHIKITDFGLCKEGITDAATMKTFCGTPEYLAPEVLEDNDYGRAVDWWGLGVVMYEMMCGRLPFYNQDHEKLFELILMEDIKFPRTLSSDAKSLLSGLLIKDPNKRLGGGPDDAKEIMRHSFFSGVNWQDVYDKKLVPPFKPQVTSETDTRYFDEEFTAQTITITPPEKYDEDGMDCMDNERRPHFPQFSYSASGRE

Structure (SMILES) | IC50 (Lck) [nM] | IC50 (Src) [µM] | IC50 (EGFR) [µM] | IC50 (Flt-1) [nM] | IC50 (Tek) [µM] | IC50 (c-Met) [µM] | IC50 (AKT) [µM] | IC50 (PDGFRB) [nM] | IC50 (EPHB4) [µM] | IC50 (Hck-1) [µM] | IC50 (FGFR1) [µM]
COc1cc(Nc2ncnc(-n3c(Nc4cccc(C(=O)O)c4)nc4ccccc43)n2)cc(OC)c1OC [Compound 390] | < 779 | 4.67 to 6.82 | 6.82 to 8.76 | 779 to 4670 | 4.67 to 6.82 | 6.82 to 8.76 | 0.779 to 4.67 | 779 to 4670 | > 8.76 | > 8.76 | 4.67 to 6.82
NC(=O)c1ccc(Nc2ncnc(-n3c(N)nc4ccccc43)n2)cc1 [Compound 396] | 1150 to 6930 | > 13 | 6.93 to 10.1 | < 1150 | 1.15 to 6.93 | 1.15 to 6.93 | 6.93 to 10.1 | 1150 to 6930 | 1.15 to 6.93 | 6.93 to 10.1 | < 1.15
COc1cc(Nc2ncnc(Nc3cccc4cccnc34)n2)cc(OC)c1OC [Compound 97] | 8650 to 11100 | > 11.1 | > 11.1 | 5930 to 8650 | > 11.1 | > 11.1 | > 11.1 | < 989 | > 11.1 | > 11.1 | 5.93 to 8.65
COc1cc(Nc2ncnc(Nc3ccccc3C)n2)cc(OC)c1OC [Compound 67] | 1090 to 6530 | 1.09 to 6.53 | 6.53 to 9.53 | 9530 to 12200 | > 12.2 | > 12.2 | > 12.2 | 1090 to 6530 | 6.53 to 9.53 | > 12.2 | > 12.2
COc1cc(Nc2ncnc(Nc3cc(Cl)c(O)c(Cl)c3)n2)cc(OC)c1OC [Compound 68] | < 913 | < 0.913 | < 0.913 | < 913 | > 10.3 | 7.99 to 10.3 | > 10.3 | 913 to 5480 | 0.913 to 5.48 | > 10.3 | > 10.3
COc1cc(Nc2ncnc(Nc3cnc4ccccc4c3)n2)cc(OC)c1OC [Compound 99] | 989 to 5930 | 0.989 to 5.93 | 0.989 to 5.93 | 989 to 5930 | > 11.1 | 8.65 to 11.1 | > 11.1 | 989 to 5930 | < 0.989 | 8.65 to 11.1 | 0.989 to 5.93
COc1cc(Nc2ncnc(Nc3ccc(C)c(O)c3)n2)cc(OC)c1OC [Compound 83] | < 1040 | < 1.04 | < 1.04 | < 1040 | 9.13 to 11.7 | > 11.7 | > 11.7 | < 1040 | 1.04 to 6.26 | 1.04 to 6.26 | < 1.04
COc1cc(Nc2ncnc(Nc3cc(OC)c(OC)c(OC)c3)n2)cc(OC)c1 [Compound 86] | 968 to 5810 | 0.968 to 5.81 | > 10.9 | > 10900 | > 10.9 | > 10.9 | > 10.9 | 968 to 5810 | > 10.9 | > 10.9 | > 10.9
COc1cc(Nc2ncnc(-n3c(Nc4ccc(C(C)C)cc4)nc4ccccc43)n2)cc(OC)c1OC [Compound 388] | 782 to 4690 | > 8.8 | > 8.8 | > 8800 | > 8.8 | > 8.8 | > 8.8 | 782 to 4690 | > 8.8 | > 8.8 | 4.69 to 6.84
COc1cc(Nc2ncnc(Nc3ccc(O)cc3)n2)cc(OC)c1OC [Compound 85] | < 1080 | < 1.08 | 1.08 to 6.5 | < 1080 | > 12.2 | > 12.2 | > 12.2 | < 1080 | 1.08 to 6.5 | > 12.2 | < 1.08
COc1cc(Nc2ncnc(Nc3cc(-c4ccccc4)nn3C)n2)cc(OC)c1OC [Compound 394] | 923 to 5540 | 0.923 to 5.54 | 8.07 to 10.4 | < 923 | > 10.4 | > 10.4 | > 10.4 | 923 to 5540 | 5.54 to 8.07 | > 10.4 | 0.923 to 5.54

Other lines, results leading:

IC50 (Lck) [nM] | IC50 (Src) [µM] | IC50 (EGFR) [µM] | IC50 (Flt-1) [nM] | IC50 (Tek) [µM] | IC50 (c-Met) [µM] | IC50 (AKT) [µM] | IC50 (PDGFRB) [nM] | IC50 (EPHB4) [µM] | IC50 (Hck-1) [µM] | IC50 (FGFR1) [µM] | Structure (SMILES)
1040 to 6260 | 1.04 to 6.26 | 1.04 to 6.26 | 9130 to 11700 | > 11.7 | > 11.7 | > 11.7 | < 1040 | > 11.7 | > 11.7 | 6.26 to 9.13 | COc1cccc(Nc2ncnc(Nc3cc(OC)c(OC)c(OC)c3)n2)c1 [Compound 87]
827 to 4960 | 0.827 to 4.96 | 4.96 to 7.24 | < 827 | > 9.31 | > 9.31 | > 9.31 | < 827 | < 0.827 | > 9.31 | < 0.827 | COc1cc(Nc2ncnc(-n3c(NCc4ccccc4)nc4ccccc43)n2)cc(OC)c1OC [Compound 371]
1130 to 6790 | 1.13 to 6.79 | 1.13 to 6.79 | < 1130 | > 12.7 | > 12.7 | > 12.7 | < 1130 | 6.79 to 9.9 | > 12.7 | 6.79 to 9.9 | COc1cc(Nc2ncnc(Nc3ccccc3)n2)cc(OC)c1OC [Compound 91]
> 11400 | > 11.4 | > 11.4 | < 1020 | > 11.4 | > 11.4 | > 11.4 | < 1020 | > 11.4 | > 11.4 | < 1.02 | COc1cc(Nc2ncnc(-c3c(O)[nH]c4ccccc34)n2)cc(OC)c1OC [Compound 380]
< 1020 | < 1.02 | < 1.02 | < 1020 | > 11.5 | 6.12 to 8.92 | 8.92 to 11.5 | < 1020 | < 1.02 | > 11.5 | 1.02 to 6.12 | COc1cc(Nc2ncnc(Nc3ccc4[nH]ccc4c3)n2)cc(OC)c1OC [Compound 928]
< 1010 | 1.01 to 6.04 | < 1.01 | 8810 to 11300 | > 11.3 | > 11.3 | > 11.3 | 1010 to 6040 | 1.01 to 6.04 | > 11.3 | > 11.3 | COc1cc(Nc2ncnc(Nc3cc(C)c(O)cc3C)n2)cc(OC)c1OC [Compound 94]
< 794 | < 0.794 | < 0.794 | 794 to 4760 | 0.794 to 4.76 | 0.794 to 4.76 | > 8.93 | 794 to 4760 | < 0.794 | 6.95 to 8.93 | < 0.794 | COc1cc(Nc2ncnc(N(c3ccc(Cl)cc3)c3nc4ccccc4[nH]3)n2)cc(OC)c1OC [Compound 374]
6620 to 9660 | > 12.4 | 6.62 to 9.66 | < 1100 | > 12.4 | 1.1 to 6.62 | > 12.4 | < 1100 | 1.1 to 6.62 | > 12.4 | < 1.1 | NC(=O)c1ccc(Nc2ncnc(Nc3cc(-c4ccco4)n[nH]3)n2)cc1 [Compound 341]

Reference: patent publication US7074789B2, “Kinase inhibitors” (Amgen Inc., priority 1999, dated 2006)
